In PMC12040169 (PLOS Biology, 2025):

Assay: in vitro
Conditions: human, hela cells, % viability

Going from O=C(c1ccccc1)N1C[C@@H](c2ccsc2)[C@@H]2CN(Cc3ccc(Cl)cc3)CC[C@@H]21 [CBK285615] to CNC(=O)C1(Cc2ccc(-c3ccccc3)cc2)CCN(C(=O)CCc2ccccc2)CC1 [CBK285765], the viability at 28.5 h, 10 µM falls from 100% to 91.8%.

Compared with COC1C(O)C(CO)OC1n1cc(F)c(=S)[nH]c1=O (stereo not drawn) [CBK201168], Nc1nc(Cl)c2ccn([C@H]3C[C@@H](O)[C@@H](CO)O3)c2n1 [CBK201309] is lower in viability at 28.5 h, 10 µM: 96% for the first, 92.4% for the second.

First: COc1ccc(C2=NN(c3ccc([N+](=O)[O-])cc3)C(=O)/C2=C/NCc2ccc3c(c2)OCO3)cc1 [CBK264598]
Second: O=C(O)c1ccc(CSc2nnc(-c3ccncc3)n2-c2ccc(Br)cc2)cc1 [CBK267559]
The viability at 28.5 h, 10 µM of the first is lower: 84.1% for the first, 84.9% for the second.

First: CN(C)[C@H]1CCCC[C@@H]1OC(=O)c1ccc(C(F)(F)F)cc1 [CBK010550F]
Second: CN(CC1(C)COC1)C(=O)c1ccc2c(c1)ncn2C1CC1 [CBK281718]
The viability at 28.5 h, 10 µM of the first is higher: 90.1% for the first, 86.8% for the second.

First: O=C(O)c1ccc(CN2CCOCC2)o1 [CBK261426C]
Second: Cc1ncccc1C(=O)N1CCC(F)CC1 [CBK200398]
The viability at 28.5 h, 10 µM of the first is higher: 90.7% for the first, 85.4% for the second.

First: CCN1C(=O)CC(n2c(C)nc3ccccc32)C1=O (stereo not drawn) [CBK287847]
Second: COc1ccc(CCN2C(=O)CC(N3CCN(c4ccccc4)CC3)C2=O)cc1OC (stereo not drawn) [CBK262354]
The viability at 28.5 h, 10 µM of the first is higher: 108% for the first, 106% for the second.

Compared with COc1ccc(C(NC(=O)C2CCC(N)CC2)c2ccccc2C)cn1 (stereo not drawn) [CBK078551], COc1ccc(C2(NC(=O)c3cnn(C)c3C)CCCCC2)cc1 [CBK283731] is lower in viability at 28.5 h, 10 µM: 92% for the first, 84.8% for the second.

Going from CCn1cc(S(=O)(=O)N2CCC3(CC2)OCCO3)cn1 [CBK270321] to CC(=O)N1C[C@H]2CCCN(S(=O)(=O)c3ccc(Cl)s3)[C@H]2C1 [CBK285293], the viability at 28.5 h, 10 µM falls from 112% to 105%.

Going from N#Cc1ccc(Oc2ccc3c(c2)-c2cc(Oc4ccc(C#N)c(C#N)c4)ccc2S3(=O)=O)cc1C#N [CBK261151] to O=[N+]([O-])c1cc(-c2nc(-c3cccs3)c(-c3cccs3)[nH]2)ccc1Br [CBK265009], the viability at 28.5 h, 10 µM rises from 92.4% to 102%.

First: Cc1c(C(=O)O)sc(S(=O)(=O)N2CCN(C(=O)c3ccc(C(C)(C)C)cc3)CC2)c1C(=O)O [CBK297119]
Second: CC(C)(O)CCN(Cc1ccc(-c2ccc(S(C)(=O)=O)cc2)nc1)C1CCN(C(=O)OC(C)(C)C)CC1 [CBK167517]
The viability at 28.5 h, 10 µM of the first is lower: 85.1% for the first, 101% for the second.

Compared with O=C(NCC1(c2ccccc2)CCCC1)c1ccc(NC(=O)C2COc3ccccc3O2)cc1 (stereo not drawn) [CBK266558], O=C(O)CCc1ccc(-c2cn3ccnc3c(NCc3ccncc3)n2)cc1 [CBK038022] is lower in viability at 28.5 h, 10 µM: 97.9% for the first, 90.6% for the second.

Going from Cc1nc(NC(=O)c2c(F)cccc2F)sc1C [CBK300495] to CNC(=O)CSc1nc2ccccc2nc1C(F)(F)F [CBK107206], the viability at 28.5 h, 10 µM rises from 76.1% to 95.9%.

First: CN1CCCCCC1c1nc(-c2c[nH]c3ccccc23)nn1CCO (stereo not drawn) [CBK306988]
Second: C[S+]([O-])CCn1c2ccccc2c2c(N3CCCC3)nc(N3CCCC3)nc21 (stereo not drawn) [CBK017586]
The viability at 28.5 h, 10 µM of the first is higher: 96% for the first, 91.9% for the second.

First: O=C(O)CNC(=O)CNC(=O)C12CC3CC(CC(C3)C1)C2 [CBK287083]
Second: CC1=C[C@@H](CNC(=O)c2cccnc2)[C@H](C(C)C)C[C@H]1CC(=O)N1CCCC1 [CBK289055]
The viability at 28.5 h, 10 µM of the first is lower: 81.4% for the first, 87.7% for the second.

First: Cc1cccn2c(=O)c(/C=C3\SC(=S)N(C(C)c4ccccc4)C3=O)c(NCCCn3ccnc3)nc12 (stereo not drawn) [CBK263836]
Second: COc1cccc(-c2nnc(SCc3nc4ccccc4[nH]3)n2N)c1 [CBK267549]
The viability at 28.5 h, 10 µM of the first is higher: 92.9% for the first, 91% for the second.

In the case of Nc1nnc(SCC(=O)NCc2ccc3c(c2)OCO3)s1 [CBK267853], the viability at 28.5 h, 10 µM is reported as 101%.

Same assay, conditions: human, hela cells, % viability, bulk resorufin, single well

Going from COc1ccccc1NC(=O)N1CCC2(CC1)OCc1cc(-c3ccccc3)ccc1O2 [CBK060599] to Cc1cc(Cl)c(OC(=O)NC2CCCCC2)cc1C [CBK022948], the viability at 28.5 h, 10 µM falls from 109% to 90.1%.
